Experiment: xn = mol fraction of the nth substance listed

CS(C)=O + CC[n+]1ccn(C)c1.COS(=O)(=O)[O-]
100 kPa, x2 = 0
Details | viscosity [mPa·s]
298.15 K | 1.99
303.15 K | 1.8
308.15 K | 1.65
313.15 K | 1.54

CCCC[N+](CCCC)(CCCC)CCCC.[Cl-] + C[C@@H](O)[C@H](N)C(=O)O
101 kPa
Details | electrical conductivity, x2 = 0.09091 [S/m] | electrical conductivity, x2 = 0.1 [S/m] | electrical conductivity, x2 = 0.1111 [S/m] | viscosity, x2 = 0.09091 [mPa·s] | viscosity, x2 = 0.1 [mPa·s] | viscosity, x2 = 0.1111 [mPa·s]
303.15 K | 0.0086 | 0.0049 | 0.0067 | 223 | 179 | 1020
313.15 K | 0.0157 | 0.0117 | 0.0135 | 131 | 104 | 630
323.15 K | 0.0279 | 0.0199 | 0.0236 | 73 | 68 | 322
333.15 K | 0.039 | 0.0311 | 0.036 | 46 | 43 | 186
343.15 K | 0.045 | 0.0402 | – | 34 | 31 | 109
353.15 K | 0.0583 | 0.0516 | 0.0569 | 24 | 24 | 63

— the CheMixHub ionic liquid set
